IC50 data for 14 compounds are collected here from patent publication US20220289724A1, “KIF18A INHIBITORS” (AMGEN INC., priority 2019, published 2022).

Molecules are shown by their SMILES.

T1 sequence (Q8NI77 1-467): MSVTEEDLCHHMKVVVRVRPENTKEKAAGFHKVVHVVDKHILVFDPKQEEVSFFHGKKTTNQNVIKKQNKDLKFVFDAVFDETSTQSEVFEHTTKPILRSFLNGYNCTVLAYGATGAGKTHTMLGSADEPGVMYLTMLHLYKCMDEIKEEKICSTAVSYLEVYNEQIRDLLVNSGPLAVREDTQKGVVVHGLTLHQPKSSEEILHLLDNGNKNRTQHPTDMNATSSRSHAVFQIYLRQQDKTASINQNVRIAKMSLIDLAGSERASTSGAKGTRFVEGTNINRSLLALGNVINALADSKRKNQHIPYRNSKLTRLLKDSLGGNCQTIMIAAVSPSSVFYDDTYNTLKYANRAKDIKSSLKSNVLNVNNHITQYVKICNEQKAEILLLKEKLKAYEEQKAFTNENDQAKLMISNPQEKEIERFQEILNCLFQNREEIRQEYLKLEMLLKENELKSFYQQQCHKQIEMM
T1 sequence (P02550 whole entry partner): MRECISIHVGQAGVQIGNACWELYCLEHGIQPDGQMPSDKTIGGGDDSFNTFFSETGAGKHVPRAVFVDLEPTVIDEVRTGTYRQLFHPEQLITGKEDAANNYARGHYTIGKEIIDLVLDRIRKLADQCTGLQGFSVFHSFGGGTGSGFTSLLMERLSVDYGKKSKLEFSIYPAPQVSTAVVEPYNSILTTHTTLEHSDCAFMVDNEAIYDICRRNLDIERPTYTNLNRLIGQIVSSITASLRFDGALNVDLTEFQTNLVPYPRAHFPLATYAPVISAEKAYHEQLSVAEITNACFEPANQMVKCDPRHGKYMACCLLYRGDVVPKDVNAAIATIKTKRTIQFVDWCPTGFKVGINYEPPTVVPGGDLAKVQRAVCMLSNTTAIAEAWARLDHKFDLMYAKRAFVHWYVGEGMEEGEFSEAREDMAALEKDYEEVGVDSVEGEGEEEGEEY
T1 sequence (P02554 whole entry partner): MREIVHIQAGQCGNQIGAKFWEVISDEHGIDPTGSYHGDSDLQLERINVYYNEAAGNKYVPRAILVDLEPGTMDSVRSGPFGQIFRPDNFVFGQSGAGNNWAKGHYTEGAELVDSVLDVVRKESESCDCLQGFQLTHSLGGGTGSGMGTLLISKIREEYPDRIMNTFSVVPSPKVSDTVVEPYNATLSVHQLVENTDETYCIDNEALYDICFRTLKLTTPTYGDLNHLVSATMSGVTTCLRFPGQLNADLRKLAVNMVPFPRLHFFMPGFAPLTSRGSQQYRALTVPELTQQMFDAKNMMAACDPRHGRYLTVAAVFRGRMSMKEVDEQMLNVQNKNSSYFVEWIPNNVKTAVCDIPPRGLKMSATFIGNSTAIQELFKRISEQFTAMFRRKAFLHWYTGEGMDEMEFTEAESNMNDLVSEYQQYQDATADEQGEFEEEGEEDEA

This experiment has as its target T1, Recombinant human KIF18A (1-467 His-tagged) protein (Homo sapiens, UniProt Q8NI77).
T1 construct: Recombinant human KIF18A (1-467 His-tagged) protein; His; made in house
The experiment in a line: KIF18A Enzyme Assay: microtubule-stimulated ATPase activity assay (ADP-Glo). It is filed as biochemical. Particulars: KIF18A protein 30 nM, 30 μg/mL pig microtubules, ATP at Km 75 μM, ADP-Glo luminescence, RT. An excerpt:
KIF18A Enzyme Assay: Microtubule-stimulated ATPase activity assay is used to measure KIF18A enzyme activity after treatment with compound. Compounds were 2-fold serially diluted in DMSO (Sigma Inc) over 22-point concentration range. Recombinant human KIF18A (1-467 His-tagged) protein was expressed using a baculovirus system and purified by affinity chromatography by Amgen Inc. Concentrations of KIF18A protein, microtubules (MT), and ATP in the reaction were optimized for standardized homogenous enzyme assay using ADP-Glorm Kinase/ATPase Assay Kit (Promega Inc). The assay measures ADP formed from the ATPase reaction. […] Concentration-response curve-fitting and IC50 determination was performed using Genedata Screener Software (Standard 15.0.1, Genedata Inc) with a four-parameter logistic regression fit model.
Table A provides data for compounds exemplified in the present application and priority document thereof, as representative compounds of the present invention, as follows: chemical name (as named by either ACD software or ChemDraw (Professional 15.0)) and biological data (IC50 in μM). Ex. […] refers to Example No.
What is called IC50 is the concentration needed to halve the response being measured. Consider `CS(=O)(=O)c1ccc(C(=O)Nc2cccc(C3CC3)c2)c(N2CCC3(CC2)CC3)c1` [Example 100-3, N-(3-cyclopropylphenyl)-4-(methylsulfonyl)-2-(6-azaspiro[2.5]octan-6-yl)benzamide], for which the 50% inhibitory concentration (IC50) was 0.187 µM. On to `CS(=O)(=O)c1ccc(C(=O)Nc2cccc3c2OCCC3)c(N2CCC3(CC2)CC3)c1` [Example 100-7, N-(chroman-8-yl)-4-(methylsulfonyl)-2-(6-azaspiro[2.5]octan-6-yl)benzamide], for which the IC50 came to 0.045 µM. Take `Cn1ccnc1-c1ccc(C(=O)Nc2cccc(S(=O)(=O)NC(C)(C)C)c2)c(N2CCC3(CC2)CC3)c1` [Example 109, N-(3-(N-(tert-butyl)sulfamoyl)phenyl)-4-(1-methyl-1H-imidazol-2-yl)-2-(6-azaspiro[2.5]octan-6-yl)benzamide]: the IC50 was determined as 0.124 µM. Take `CC(C)(C)NS(=O)(=O)c1cccc(NC(=O)c2ccc([C@@](C)(O)CO)cc2N2CCC3(CC2)CC3)c1` (single isomer, unassigned) [Example 108-1]: the IC50 is 0.092 µM. As for `N=[S@](=O)(c1cccc(NC(=O)c2ccc(NS(=O)(=O)CCO)cc2N2CCC3(CC2)CC3)c1)N1CCC1` (single isomer, unassigned) [Example 112-1], the IC50 turned out to be 0.142 µM.

For the compound `CC(C)(C)NS(=O)(=O)c1cccc(NC(=O)c2ccc(NS(C)(=O)=O)cc2N2CCC3(CC2)CC3)c1` [Example 102-1, N-(3-(N-(tert-butyl)sulfamoyl)phenyl)-4-(methylsulfonamido)-2-(6-azaspiro[2.5]octan-6-yl)benzamide], the half-maximal inhibitory concentration (IC50) came to 0.027 µM. For the compound `C[C@@H](CO)S(=O)(=O)Nc1ccc(C(=O)Nc2cccc(S(=O)(=O)NC(C)(C)C)c2)c(N2CCC3(CC2)CC3)c1` (single isomer, unassigned) [Example 105-1], the IC50 turned out to be 0.042 µM. In the case of `CC(C)(C)NS(=O)(=O)c1cccc(NC(=O)c2ccc(S(=O)(=O)NCCO)cc2N2CCC3(CC2)CC3)c1` [Example 107-2, N-(3-(N-(tert-butyl)sulfamoyl)phenyl)-4-(N-(2-hydroxyethyl)sulfamoyl)-2-(6-azaspiro[2.5]octan-6-yl)benzamide] it was 0.043 µM. Take `CC(C)(CO)Nc1cccc(NC(=O)c2ccc(NS(=O)(=O)C3(C)CC3)cc2N2CCC3(CC2)CC3)c1` [Example 101-3, N-(3-((1-hydroxy-2-methylpropan-2-yl)amino)phenyl)-4-((1-methylcyclopropane)-1-sulfonamido)-2-(6-azaspiro[2.5]octan-6-yl)benzamide]: the IC50 was 0.115 µM. In the case of `CS(=O)(=O)c1ccc(C(=O)Nc2cccc(N3CCOCC3)c2)c(N2CCC3(CC2)CC3)c1` [Example 100-10, 4-(methylsulfonyl)-N-(3-morpholinophenyl)-2-(6-azaspiro[2.5]octan-6-yl)benzamide] it was 0.862 µM; in that of `CC(C)(C)NS(=O)(=O)c1cccc(NC(=O)c2ccc(S(=O)(=O)C3(C)COC3)cc2N2CCC3(CC2)CC3)c1` [Example 100, N-(3-(N-(tert-Butyl)sulfamoyl)phenyl)-4-((3-methyloxetan-3-yl)sulfonyl)-2-(6-azaspiro[2.5]octan-6-yl)benzamide], 0.173 µM; in that of `CS(=O)(=O)c1ccc(C(=O)Nc2cccc3cccnc23)c(N2CCC3(CC2)CC3)c1` [Example 100-5, 4-(methylsulfonyl)-N-(quinolin-8-yl)-2-(6-azaspiro[2.5]octan-6-yl)benzamide], 0.246 µM. In the case of `CC(C)(C)NS(=O)(=O)c1cccc(NC(=O)c2ccc(-c3ncco3)cc2N2CCC3(CC2)CC3)c1` [Example 109-3, N-(3-(N-(tert-butyl)sulfamoyl)phenyl)-4-(oxazol-2-yl)-2-(6-azaspiro[2.5]octan-6-yl)benzamide] it was 0.534 µM.

With `CC(C)(C)NS(=O)(=O)c1cccc(NC(=O)c2ccc(NS(=O)(=O)C3(C)CC3)cc2N2CCC3(CC2)CC3)c1` [Example 102, N-(3-(N-(tert-Butyl)sulfamoyl)phenyl)-4-((1-methylcyclopropane)-1-sulfonamido)-2-(6-azaspiro[2.5]octan-6-yl)benzamide], the half-inhibitory concentration (IC50) was determined as 0.061 µM.
